From patent publication US20020082193A1, “Inhibition of mitochondrial calcium/sodium antiporter” (priority 2000, published 2002)
Read-outs that look alike come from different tables or passages of the source.

Assays:
[1] = target: T1, mitochondrial calcium/sodium antiporter (Rattus norvegicus, UniProt Q6AXS0); assay: Inhibition of mitochondrial calcium/sodium antiporter activity in digitonin-permeabilized INS-1 cells (calcium green 5N); format: cell-based
T1 construct: endogenous in cells; host or cells: INS-1 rat insulinoma cells, digitonin-permeabilized
T1 sequence (Q6AXS0 27-585): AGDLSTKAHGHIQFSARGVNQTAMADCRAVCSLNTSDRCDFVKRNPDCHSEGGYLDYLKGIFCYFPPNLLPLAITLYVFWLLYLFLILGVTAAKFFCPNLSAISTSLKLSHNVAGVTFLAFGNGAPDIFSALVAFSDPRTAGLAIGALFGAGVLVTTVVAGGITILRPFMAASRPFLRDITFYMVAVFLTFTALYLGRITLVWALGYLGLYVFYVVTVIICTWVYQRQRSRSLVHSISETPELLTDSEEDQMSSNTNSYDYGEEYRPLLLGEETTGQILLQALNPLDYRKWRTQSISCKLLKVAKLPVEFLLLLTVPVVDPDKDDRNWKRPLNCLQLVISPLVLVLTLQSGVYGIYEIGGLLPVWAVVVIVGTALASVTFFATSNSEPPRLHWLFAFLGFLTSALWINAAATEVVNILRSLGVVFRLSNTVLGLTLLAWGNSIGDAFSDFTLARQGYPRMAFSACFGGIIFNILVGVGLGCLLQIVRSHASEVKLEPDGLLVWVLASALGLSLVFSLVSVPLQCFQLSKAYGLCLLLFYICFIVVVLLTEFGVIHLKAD
Procedure: INS-1 rat insulinoma cells (see Example 3) were harvested by trypsinization, washed and resuspended at 10×10^6 cells/ml in assay buffer (250 mM sucrose, 10 mM HEPES, 2.5 mM K2HPO4, 5 mM succinate, pH 7.4) containing 0.007% digitonin, 60 μM CaCl2 and 0.05 μM calcium green 5N (Molecular Probes, Inc., Eugene, OR). After a five minute calcium loading incubation, ruthenium red (1 μM; Sigma, St. Louis, MO) was added to block further calcium uptake by mitochondria. Cell suspensions were dispensed into 96-well plates (100 μl per well, 1×10^6 cells per well) and candidate agents (i.e., candidate mitochondrial calcium/sodium antiporter inhibitors) were added to some sets of triplicate wells at concentrations of 1, 10 or 100 μM, while other sets of wells provided appropriate control conditions (e.g., buffer and vehicle controls). Baseline fluorescence measurements were made using a multiwell plate fluorimeter (F-MAX™, Molecular Devices Corp., Sunnyvale, Calif.; or PolarStar , BMG Labtechnologies, Inc., Durham, N.C.) according to the manufacturer's instructions. Calcium efflux from mitochondria was then induced by adding NaCl to all wells to achieve a final concentration of 20 mM, and the rate of change in fluorescence in each well was monitored was monitored for two minutes and quantified using software included with the plate reader.

[2] = tested on: pancreatic islets of Langerhans; assay: Glucose-stimulated insulin secretion (GSIS) by isolated rat islets, insulin ELISA; format: cell-based, Sprague-Dawley rats; settings: 1 μM compound
Procedure: Pancreatic islets of Langerhans were isolated from adult male Sprague-Dawley rats using a standard collagenase infusion and digestion procedure as described in Example 5. Islets were cultured at 37° C. for 1-2 days in CMRL-1066 medium supplemented with 5.5 mM glucose, 10% fetal bovine serum, 100 U/ml penicillin and 100 μg/ml streptomycin, in a humidified atmosphere containing 5% CO2. Islets were manually picked and washed in Krebs Ringer Bicarbonate buffer (KRB: 134 mM NaCl, 4.7 mM KCl, 1.2 mM KH2PO4, 1.2 mM MgSO4, 1 mM CaCl2, 10 mM NaHCO3, pH 7.4) in preparation for measurement of glucose-stimulated insulin secretion (GSIS). Aliquots of washed islets were preincubated in oxygenated KRB supplemented with 16 mM HEPES, 0.01% fetal bovine serum and 5.5 mM glucose for 60 min at 37° C. […] Cell-conditioned media samples were then collected by centrifugation and their insulin content was determined using enzyme-linked immunosorbent assay (ELISA) kits (CrystalChem or ALPCO rat insulin ELISA) according to the kit supplier's instructions. Following treatment with a preferred compound, the concentration of insulin detected in the islet-conditioned medium was at least 1.5 times the insulin concentration detected in the medium conditioned by islets that were exposed to 8 mM glucose. […]

[3] = target: T2, mitochondrial Na+/Ca2+ exchanger (Rattus norvegicus, UniProt Q6AXS0); assay: Na+-induced Ca2+ release from mitochondria, Calcium Green 5N fluorescence; format: biochemical
T2 construct: Rat heart mitochondria were isolated using a modified differential centrifugation protocol; from tissue; host or cells: rat heart mitochondria
T2 sequence (Q6AXS0 27-585): T1 sequence (Q6AXS0 27-585)
Procedure: (§1) Rat heart mitochondria were isolated using a modified differential centrifugation protocol essentially as described by Sordahl (Methods in Studying Cardiac Membranes (1984), pp 65-74). Experiments to assess effects on transmitochondrial membrane transport of calcium were carried out at 25° C. in a buffer consisting of 250 mM sucrose, 10 mM HEPES (pH 7.4), 5 mM Pi, 5 mM succinate, 1 μM rotenone, supplemented with 1 μM cyclosporine A to prevent interference from the Ca^2+-dependent permeability transition pore (PTP). Ca^2+ uptake and release were measured using a Ca^2+-selective electrode in a custom-constructed chamber additionally equipped for monitoring mitochondrial swelling via changes in light scattering (World Precision Instruments, Inc., Sarasota, Fla.). Alternatively, Ca^2+ fluxes were followed fluorometrically using the Calcium Green 5N™ indicator according to the supplier's recommendations (Molecular Probes, Eugene, Oreg.).
(§2) Mitochondria (0.5 mg/ml) that were energized by the presence of succinate accumulated endogenous Ca^2+ from the medium (trace calcium from water source). Additional Ca^2+ (20 μM ) was added to the reaction buffer 2-3 minutes following commencement of measurements with the calcium electrode. […] No PTP activation (swelling) was detected under experimental conditions used.

[4] = target: T2, mitochondrial Na+/Ca2+ exchanger; assay: Na+-induced Ca2+ release from rat heart mitochondria, Ca2+-selective electrode; format: biochemical; settings: 20 μM compound
Procedure: as §1, §2

[5] = tested on: mitochondrial calcium/sodium antiporter (MCA) from beef heart mitochondria; assay: Sodium-calcium exchange in proteoliposomes reconstituted with affinity isolated MCA; format: biochemical; settings: 100 μM calcium chloride, FIG. 8
Procedure: From a separate preparation of beef heart mitochondria, affinity isolation of the MCA was performed as just described, except that 1% CHAPS was substituted for 1% Triton X-100 in the initial solubilization, and following the column wash steps, retained components (including proteins bound to the affinity matrix) were eluted with 50 mM diltiazem. The column eluate containing proteins was incorporated into proteoliposomes essentially as described by Li et al (1992 J. Biol. Chem. 267: 17983-17989), using Calcium Green SN as the internal fluorescent probe (Molecular Probes, Eugene, OR), and calcium transport activity of the MCA was measured essentially as described by Li et al. (1992). Briefly, calcium chloride (100 μM) was added to a suspension of Calcium Green 5N-loaded proteoliposomes to initiate sodium-calcium exchange, which was measured as an increase in fluorescence as the calcium entered the vesicles that contained Calcium Green 5N. […] Data points in FIG. 8 represent average values at each concentration from two independent experiments.

[6] = tested on: rat pancreatic islet cells; assay: Insulin secretion by rat pancreatic islet cells, 5 mM or 8 mM glucose (FIG. 3); format: cell-based; settings: various concentrations
[7] = tested on: INS-1 rat insulinoma cells; assay: Insulin secretion by INS-1 cells, basal or 8 mM glucose (radioimmunoassay); format: cell-based; settings: 15, 30 or 60 minutes, FIG. 2
Procedure: INS-1 rat insulinoma cells were provided by Prof. Claes Wollheim, , Geneva, Switzerland, and cultured at 37° C. in a humidified […] (Gibco BRL, Gaithersburg, Md.) fetal bovine serum (Irvine Scientific, Irvine, Calif.), 2 mM […], 100 U/ml streptomycin, 10 mM HEPES, 1 mM sodium pyruvate and 50 μM β-mercaptoethanol (all reagents Sigma, St. Louis, Mo., unless otherwise noted).
INS-1 cells were seeded into 24-well plates containing RPMI media supplemented at 0.5×10^6 cells/well and cultured at 37° C., 5% CO2 for 2 days. Cells at or near confluence (0.7×10^6cells/well) were rinsed with glucose-free KRH buffer (134 mM NaCl, 4.7 mM KCl, 1.2 mM KH2PO4, 1.2 mM MgSO4, 1.0 mM CaCl2, 10 mM HEPES-ph 7.4, 25 mM NaHCO3, 0.5% BSA), then incubated in the same buffer for 1 hr at 37° C. in a humidified 5% CO2/95% air atmosphere. […] Insulin concentrations in the supernatants were measured and normalized to cell number using an insulin-specific radioimmunoassay kit (ICN Biochemicals, Irvine, Calif.) according to the manufacturer's instructions. […]

With O=C1C[S+]([O-])C(c2ccccc2Cl)c2cc(Cl)ccc2N1 (stereo not drawn) [Compound No. 24] the IC50 ([1]; permeabilized INS-1 cells, 20 mM NaCl-induced calcium efflux, read-out: IC50, MCA inhibition) was under 100 µM and the “stimulation of GSIS relative to GSIS detected with 8 mM glucose” value [2] was 178%.

In the case of Cc1ccccc1C1OCC(=O)Nc2ccc(Cl)cc21 (stereo not drawn) [compound 10], the IC50 [1] is reported as under 100 µM.

With O=C(O)CN1C(=O)CSC(c2ccccc2Cl)c2cc(Cl)ccc21 (stereo not drawn) [Compound No. 2] the “concentrations at which inhibition was observed” value [3] was at least 100 µM.

In the case of O=C1CSC(c2ccccc2Cl)c2cc(Cl)ccc2N1 (stereo not drawn) [Compound No. 1, 7-chloro-5-(2-chlorophenyl)-1,5-dihydro-4,1-benzothiazepin-2-one], the inhibition at 20 µM [4] is reported as about 50%, the “inhibition of Na+-induced rapid Ca2+ release” value ([4]; FIG. 4) is reported as “inhibited completely” and the “inhibition of sodium-calcium exchange activity” value [5] is reported as “inhibited in a dose-dependent fashion”. The “glucose stimulated insulin secretion by rat islets” value [6] was “enhancement”, the “glucose stimulated insulin secretion by INS-1 cells” value [7] was “enhanced” and the “stimulation of GSIS relative to GSIS detected with 8 mM glucose” value [2] was 222 (±48) %.

O=C1CSC(c2ccccc2Cl)c2ccccc2N1 (stereo not drawn) [compound 23] gave an IC50 [1] of under 100 µM.

Work on Cc1ccc(C2SCC(=O)Nc3ccc(Cl)cc32)c(C)c1 (stereo not drawn) [compound 21] yielded an IC50 [1] of under 100 µM.
